# Molecular target: EGFR (UniProt P00533)
# Sequence (P00533 whole entry, looked up): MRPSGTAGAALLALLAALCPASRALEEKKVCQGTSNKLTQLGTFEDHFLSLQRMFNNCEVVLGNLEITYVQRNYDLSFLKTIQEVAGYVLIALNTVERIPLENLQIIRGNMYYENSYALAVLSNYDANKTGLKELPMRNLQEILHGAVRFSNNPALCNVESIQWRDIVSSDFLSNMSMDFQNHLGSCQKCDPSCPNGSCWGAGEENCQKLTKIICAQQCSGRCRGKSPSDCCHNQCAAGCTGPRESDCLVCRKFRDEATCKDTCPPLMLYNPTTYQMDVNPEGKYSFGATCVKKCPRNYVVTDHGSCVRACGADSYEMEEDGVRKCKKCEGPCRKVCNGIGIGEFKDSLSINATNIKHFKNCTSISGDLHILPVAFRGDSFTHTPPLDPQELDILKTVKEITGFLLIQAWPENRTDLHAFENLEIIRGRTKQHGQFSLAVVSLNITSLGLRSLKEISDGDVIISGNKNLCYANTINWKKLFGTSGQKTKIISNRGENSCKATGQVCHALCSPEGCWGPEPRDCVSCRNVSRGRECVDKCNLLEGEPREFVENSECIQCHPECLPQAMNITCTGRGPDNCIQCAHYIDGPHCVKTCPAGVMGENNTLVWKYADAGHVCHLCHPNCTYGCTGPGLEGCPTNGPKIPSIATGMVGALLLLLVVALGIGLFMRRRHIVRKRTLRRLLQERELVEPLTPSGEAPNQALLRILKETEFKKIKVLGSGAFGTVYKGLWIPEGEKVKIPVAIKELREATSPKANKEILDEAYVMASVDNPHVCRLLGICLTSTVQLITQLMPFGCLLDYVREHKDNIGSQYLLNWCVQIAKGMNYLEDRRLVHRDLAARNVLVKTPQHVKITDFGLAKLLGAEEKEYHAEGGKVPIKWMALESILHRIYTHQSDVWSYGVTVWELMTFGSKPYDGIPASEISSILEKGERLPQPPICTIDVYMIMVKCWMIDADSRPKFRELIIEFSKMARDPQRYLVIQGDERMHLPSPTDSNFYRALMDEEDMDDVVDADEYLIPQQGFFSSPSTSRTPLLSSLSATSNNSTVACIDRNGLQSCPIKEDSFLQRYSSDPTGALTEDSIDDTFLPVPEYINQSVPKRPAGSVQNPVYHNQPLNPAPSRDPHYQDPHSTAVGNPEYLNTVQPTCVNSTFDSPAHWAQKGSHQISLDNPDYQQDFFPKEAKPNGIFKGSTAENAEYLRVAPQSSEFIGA
row,IC50 [µg/mL],SMILES
1,< 0.4,NC(=O)Cc1cccc(Nc2ncnc(Nc3cccc(Br)c3)n2)c1
2,> 4.5,CC[C@H]1CN(c2ccc(-c3ncnc(Nc4cc(OC)c(OC)c(OC)c4)n3)cn2)CCN1
3,> 4.5,COc1cc(Nc2ncnc(-n3c(Nc4cccc5cccnc45)nc4ccccc43)n2)cc(OC)c1OC
4,> 4.5,O=c1[nH]c2ccccc2n1-c1ncnc(Nc2ccc(Cl)cc2)n1
5,> 4.5,COc1cc(Nc2ncnc(-c3ccnc(Cl)c3)n2)cc(OC)c1OC
6,> 4.5,CN1CCN(Cc2cccc(Nc3ncnc(Nc4cccc5ccccc45)n3)c2)CC1
7,> 4.5,Clc1cccc(Nc2ncnc(-n3cccc3)n2)c1
8,> 4.5,COc1cc(Nc2ncnc(N3CCN(c4ncccn4)CC3)n2)cc(OC)c1OC
9,> 4.5,COc1cc(Nc2ncnc(-n3ccc4ccc(F)cc43)n2)cc(OC)c1OC
10,< 0.4,CC(=O)NS(=O)(=O)c1ccc(Nc2ncnc(N(C)c3cccc(Cl)c3)n2)cc1
11,0.4 to 2.4,COc1ccc(Nc2ncnc(Nc3ccc(N4CCCCC4)cc3)n2)cc1OC
12,> 4.5,O=c1[nH]c2ccccc2n1-c1ncnc(Nc2ccncc2)n1
13,> 4.5,CN(c1cccc(Cl)c1)c1ncnc(Nc2cc(Cl)c(Cl)c(Cl)c2)n1
14,> 4.5,C=CCNC(=O)c1ccc(-c2cc(Nc3ncnc(Nc4cc(OC)c(OC)c(OC)c4)n3)[nH]n2)cc1
15,> 4.5,COCCOc1ccc(Nc2ncnc(-n3c(N)nc4ccccc43)n2)cc1OCCOC
16,> 4.5,COc1cc(Nc2ncnc(-n3ncc4ccccc43)n2)cc(OC)c1OC
17,> 4.5,COc1ccc(Nc2ncnc(N(C)c3ccc(C(=O)O)cc3)n2)cc1OC
18,0.4 to 2.4,COc1ccc(Nc2ncnc(N(C)CCc3ccccn3)n2)cc1OC
19,> 4.5,COc1cc(Nc2ncnc(-c3cccnc3NCCCN)n2)cc(OC)c1OC
20,< 0.4,COc1cccc(Nc2ncnc(N(C)c3cccc(Cl)c3)n2)c1
21,3.5 to 4.5,COC(=O)c1ccc(-c2cc(Nc3ncnc(Nc4cccc(CC(N)=O)c4)n3)[nH]n2)cc1
22,> 4.5,COc1cccc(Nc2ncnc(-c3cccs3)n2)n1

row,IC50 [µg/mL],SMILES
1,> 4.5,COc1cc(Nc2ncnc(-n3c(NC(CCO)c4ccccc4)nc4ccccc43)n2)cc(OC)c1OC (configuration not stated)
2,> 4.5,Nc1nc2ccccc2n1-c1ncnc(Nc2ccccn2)n1
3,2.4 to 3.5,Fc1ccc(CNc2ncccc2-c2ncnc(Nc3cccc(Cn4ccnn4)c3)n2)cc1
4,> 4.5,c1ccc(Nc2ncccc2-c2ncnc(Nc3cccc(Cn4ccnn4)c3)n2)cc1
5,> 4.5,COc1cc(Nc2ncnc(Nc3cccc(CN4CCN(C)CC4)c3)n2)cc(OC)c1OC
6,< 0.4,COc1ccc(Nc2ncnc(Nc3ccc4[nH]ccc4c3)n2)cc1OC
7,0.4 to 2.4,COC(=O)c1ccc(-c2cc(Nc3ncnc(Nc4cccc(CC(=O)O)c4)n3)[nH]n2)cc1
8,0.4 to 2.4,COc1cc(Nc2ncnc(N3c4ccccc4CCC3C)n2)cc(OC)c1OC (configuration not stated)
9,> 4.5,FC(F)(F)c1cccc(Nc2ncnc(-n3cccc3)n2)c1
10,3.5 to 4.5,COc1ccc2c(ccn2-c2ncnc(Nc3cc(OC)c(OC)c(OC)c3)n2)c1
11,2.4 to 3.5,COc1cc(Nc2ncnc(Nc3cc(-c4ccc(Cl)c(Cl)c4)n[nH]3)n2)cc(OC)c1OC
12,< 0.4,COc1ccc(Nc2ncnc(N(C)c3ccccc3)n2)cc1OC
13,3.5 to 4.5,COc1cc(Nc2ncnc(Nc3ccc(-c4ccccc4)cc3)n2)cc(OC)c1OC
14,> 4.5,CC(C)(C)c1cc(Nc2ncnc(Cl)n2)[nH]n1
15,< 0.4,CCOC(=O)Cc1ccc(Nc2ncnc(Nc3cc(OC)c(OC)c(OC)c3)n2)cc1
16,2.4 to 3.5,COc1ccc(Oc2ncnc(Nc3cc(OC)c(OC)c(OC)c3)n2)cc1
17,2.4 to 3.5,CCOc1ccc(Nc2ncnc(-n3c(N)nc4ccccc43)n2)cc1OCC
18,> 4.5,CCOC(=O)Cc1ccc(Nc2ncnc(-c3ccccc3)n2)cc1
19,< 0.4,c1ccc(Cn2ncc3cc(Nc4ncnc(Nc5ccc6ncsc6c5)n4)ccc32)cc1
20,> 4.5,COc1cc(OC)cc(-c2nnc(Nc3ncnc(Nc4cc(OC)c(OC)c(OC)c4)n3)[nH]2)c1
21,> 4.5,COc1cc(Nc2ncnc(-n3c(Nc4ccccc4)nc4ccccc43)n2)cc(OC)c1OC
22,> 4.5,CN1CCN(Cc2cccc(Nc3ncnc(Nc4ccc5c(cnn5Cc5ccccc5)c4)n3)c2)CC1

row,IC50 [µg/mL],SMILES
1,0.4 to 2.4,COc1cc(Nc2ncnc(Nc3ccccc3)n2)cc(OC)c1OC
2,> 4.5,COC(=O)c1ccc(-c2cc(Nc3ncnc(Nc4cc(F)cc(F)c4)n3)[nH]n2)cc1
3,> 4.5,COc1cc(Nc2ncnc(-n3c(NC(C)C)nc4ccccc43)n2)cc(OC)c1OC
4,2.4 to 3.5,CC(C)(C)OC(=O)NCc1cccc(Nc2ncnc(Nc3cc(-c4ccccc4)n[nH]3)n2)c1
5,> 4.5,FC(F)(F)c1ccc(Cl)c(Nc2ncnc(-n3cccc3)n2)c1
6,0.4 to 2.4,c1ccc(-c2cc(Nc3ncnc(Nc4ccc5[nH]ncc5c4)n3)[nH]n2)cc1
7,> 4.5,CC(C)(C)OC(=O)NCc1cccc(Nc2ncnc(Nc3cc(C(C)(C)C)n[nH]3)n2)c1
8,2.4 to 3.5,COc1cc(Nc2ncnc(Nc3ccc(O)cc3C)n2)cc(OC)c1OC
9,< 0.4,COc1cc(Nc2ncnc(Nc3ccc(F)c(Cl)c3)n2)cc(OC)c1OC
10,< 0.4,COc1ccc(Nc2ncnc(N(C)c3cccc(Cl)c3)n2)cc1OC
11,0.4 to 2.4,Nc1nc2ccccc2n1-c1ncnc(Nc2cccc(Cl)c2)n1
12,0.4 to 2.4,c1ccc(Cn2ncc3cc(Nc4ncnc(NCc5ccco5)n4)ccc32)cc1
13,3.5 to 4.5,COCCCNc1ncnc(N2CCCc3cc(C)ccc32)n1
14,> 4.5,Nc1ncnc(Nc2nc(-c3ccccc3)cs2)n1
15,0.4 to 2.4,COCCOc1ccc(Nc2ncnc(Nc3ccc(C)c(O)c3)n2)cc1OCCOC
16,> 4.5,COc1cc(C)c(Nc2ncnc(-n3c(N)nc4ccccc43)n2)cc1OC
17,< 0.4,COc1cc(Nc2ncnc(Nc3cccc4ccccc34)n2)cc(OC)c1OCCN1CCOCC1
18,0.4 to 2.4,Nc1nc2ccccc2n1-c1ncnc(Nc2ccc(-c3cnco3)cc2)n1
19,0.4 to 2.4,COc1cc(Nc2ncnc(Nc3cc(-c4cccc(Cl)c4)n[nH]3)n2)cc(OC)c1OC
20,> 4.5,Nc1nc2ccccc2n1-c1ncnc(Nc2ccccc2)n1
21,< 0.4,CN(c1cccc(Cl)c1)c1ncnc(Nc2cc(-c3ccco3)[nH]n2)n1
22,3.5 to 4.5,COc1cc(Nc2ncnc(Nc3cc(OC)c(OC)c(OC)c3)n2)cc(OC)c1OC

row,IC50 [µg/mL],SMILES
1,> 4.5,COc1cc(Nc2ncnc(-c3cc4ccccc4s3)n2)cc(OC)c1OC
2,> 4.5,COc1cc(Nc2ncnc(-c3ccc(NCCCO)nc3)n2)cc(OC)c1OC
3,> 4.5,CNc1nc2ccccc2n1-c1ncnc(Nc2cc(OC)c(OC)c(OC)c2)n1
4,> 4.5,COc1cc(Nc2ncnc(-c3ccnc(N4CCCCC4)c3)n2)cc(OC)c1OC
5,> 4.5,COc1cc(Nc2ncnc(-n3c(N)nc4ccccc43)n2)ccc1OCCN1CCOCC1
6,< 0.4,O=C(O)CCc1cccc(Nc2ncnc(Nc3cc(-c4ccco4)[nH]n3)n2)c1
7,< 0.4,COc1ccc(Nc2ncnc(N(C)c3ccc(Cl)cc3)n2)cc1OC
8,> 4.5,COc1cc(Nc2ncnc(-c3cccnc3N)n2)cc(OC)c1OC
9,< 0.4,COc1ccc(Nc2ncnc(Nc3cccc(C)c3)n2)cc1OC
10,> 4.5,NS(=O)(=O)c1ccc(CNc2ncnc(-n3c(=O)[nH]c4ccccc43)n2)cc1
11,3.5 to 4.5,COc1cc(Nc2ncnc(-n3c(NCc4ccc(Cl)cc4C)nc4ccccc43)n2)cc(OC)c1OC
12,> 4.5,COc1cc(Nc2ncnc(-c3cccnc3NC(C)c3cccc4ccccc34)n2)cc(OC)c1OC (configuration not stated)
13,0.4 to 2.4,COc1cc(Nc2ncnc(Nc3cccc(Oc4ccccc4)c3)n2)cc(OC)c1OC
14,> 4.5,COc1cc(Nc2ncnc(-n3c(NC(C)=O)nc4ccccc43)n2)cc(OC)c1OC
15,< 0.4,COc1cc(Nc2ncnc(Nc3cc(C)c(O)cc3C)n2)cc(OC)c1OC
16,3.5 to 4.5,COc1ccc(Nc2ncnc(Nc3cc(OC)c(OC)c(OC)c3)n2)cc1OC
17,> 4.5,COc1cc(Nc2ncnc(Nc3cc(-c4ccc(C(=O)NCCc5ccccc5)cc4)n[nH]3)n2)cc(OC)c1OC
18,> 4.5,COC(=O)c1cc(Nc2ncnc(Nc3cc(-c4ccco4)n[nH]3)n2)cc(C(=O)OC)c1
19,> 4.5,COc1ccc(Nc2ncnc(-n3c(N)nc4ccccc43)n2)cn1
20,> 4.5,COC(=O)c1cccc(Nc2nc3ccccc3n2-c2ncnc(Nc3cc(OC)c(OC)c(OC)c3)n2)c1
21,> 4.5,COc1cc(Nc2ncnc(-n3c(Nc4cccc(C(N)=O)c4)nc4ccccc43)n2)cc(OC)c1OC
22,> 4.5,Cc1ccc2c(c1)CCCN2c1ncnc(NCCc2cccnc2)n1

row,IC50 [µg/mL],SMILES
1,0.4 to 2.4,c1ccc(Cn2ncc3cc(Nc4ncnc(Nc5ncccn5)n4)ccc32)cc1
2,> 4.5,COc1cc(Nc2ncnc(-n3c(NC4c5ccccc5CC4O)nc4ccccc43)n2)cc(OC)c1OC (configuration not stated)
3,> 4.5,COc1cc(Nc2ncnc(-n3c(OCc4ccccn4)nc4ccccc43)n2)cc(OC)c1OC
4,> 4.5,COc1ccc(Nc2nc3ccccc3n2-c2ncnc(Nc3cc(OC)c(OC)c(OC)c3)n2)c(C)c1
5,> 4.5,COc1cc(Nc2ncnc(-n3c(NCc4cccnc4)nc4ccccc43)n2)cc(OC)c1OC
6,2.4 to 3.5,COc1ccc(Nc2ncnc(-n3c(N)nc4ccccc43)n2)cc1
7,> 4.5,COC(=O)c1sccc1Nc1ncnc(Nc2cc(OC)c(OC)c(OC)c2)n1
8,> 4.5,O=[N+]([O-])c1cccc(Nc2ncnc(-c3cccs3)n2)c1
9,> 4.5,COc1ccc(Nc2ncnc(NCCNC(C)=O)n2)cc1OC
10,2.4 to 3.5,COc1ccc(Nc2ncnc(NCC(=O)c3ccccc3)n2)cc1OC
11,< 0.4,COc1ccc(Nc2ncnc(N(C)C3CCCCC3)n2)cc1OC
12,> 4.5,COc1cc(Nc2ncnc(-n3c(NCc4ccc(Cl)cc4F)nc4ccccc43)n2)cc(OC)c1OC
13,0.4 to 2.4,CC(C)(C)c1cc(Nc2ncnc(Nc3cccc(CC(=O)O)c3)n2)[nH]n1
14,> 4.5,COc1cc(Nc2ncnc(-n3c(NCc4ccccn4)nc4ccccc43)n2)cc(OC)c1OC
15,3.5 to 4.5,COc1ccc(CNc2ncnc(Nc3ccc4c(cnn4Cc4ccccc4)c3)n2)cc1OC
16,> 4.5,COC(=O)c1ccc(Nc2ncnc(-c3ccccc3)n2)cc1
17,> 4.5,COc1cc(Nc2ncnc(-n3cc(C)c4ccccc43)n2)cc(OC)c1OC
18,< 0.4,COc1ccc(Nc2ncnc(N(C)c3cccc(Cl)c3)n2)cc1
19,> 4.5,C=CCNc1cc(-c2ncnc(Nc3cc(OC)c(OC)c(OC)c3)n2)ccn1

# Reference: the Kinase Knowledgebase extract (Sharma et al. 2016)
